Laboratory results as given in patent publication US20220281860A1, “COMPOUNDS AND METHODS OF TREATING RNA-MEDIATED DISEASES” (Arrakis Therapeutics, Inc., priority 2016, published 2022).
Where a name gives a salt, the structure may show the parent alone.

Columns and labels:
[1] = tested on: RNA3WJ_0.0.0_5IB_3FAM (3WJ_0.0.0_5IB_3FAM) RNA three way junction; assay: Thermal shift binding assay; conditions: for Melt. Temp. with cmpd / Shift melt. Temp.: RNA sequence 3WJ_0.0.0_5IB_FAM; for Melt. Temp. with cmpd: melting temperature in presence of compound; for Shift melt. Temp.: melting temperature with cmpd minus without cmpd
Description: (§1) Purpose: Test binding of compounds for RNA three way junction (for example, a construct of 38 nt). Thermal shift assay based on established fluorescence quenching assay utilizing FAM as fluorescence tag and Iowa Black as quencher. Tags were attached at the 3′ and 5′ end, respectively. Stable formation of 3WJ upon compound binding would lead to quenching of the FAM fluorescence due to close proximity of the Iowa Black tag. Thermal unfolding leads to increase of fluorescence emission. Assay readout: FAM (465-510 nm) Thermal Shift.
(§2) Assay sample buffer used: 10 mM CacoK pH 7.2, 30 mM NaCl. Buffer preparation in Dnase/Rnase Free distilled water (Gibco Life Technologies).
(§3) Tool compounds provided as dry powder are prepared as 50 mM stock solution in 100% d6-DMSO. Stock solutions of 50 mM concentration in d6-DMSO are stored at RT.
(§4) Sample plate: Roche, Light Cycler480 Multiwell Plate96, white, REF 04729692001. (Dilution plate: Greiner REF 781101, PS-Microplate, 384 well, clear). Thermal Shift device: Roche, Light Cycler480.
(§5) Daily fresh (10 ml): 1 ml 100 mM CacoK pH 7.2 and 0.3 ml 1 M NaCl filled up to 10 ml with Dnase/Rnase Free distilled water.
(§6) Dilute the RNA 1:10 (final 10 μM) in Assay Buffer.
(§7) Heat up the diluted RNA up to 90° C. for 5 min (sealed Eppendorf Tube).
(§8) Cool down the RNA probe slowly to RT.
(§9) Dilute the compounds to 800 μM in DMSO (Assay: 8 μM).
(§10) 78.4 μL Assay Buffer are pipetted into Greiner REF 781101, PS-Microplate, 384 (each well needed).
(§11) Add 0.8 μL of the RNA-Solution ([…]).
(§12) Add 0.8 μL Compound-Solution ([…]).
(§13) Final concentrations in the sample: 1 μM RNA, 8 μM compound, 1% DMSO
(§14) Pipet 20 μL Sample Solution into Roche, Light Cycler480 Multiwell Plate96, white, REF 04729692001.
(§15) When sample transfer is finished, seal the plate with a clear topseal (part of REF 04729692001).
(§16) Centrifuge the plate with a table-top device to spin down the samples.
(§17) Measure the 96 plate with the LightCycler480 (Channel: 480/510 nm; Temperature: 41-91° C.).
(§18) Analyse measurement-data with the MeltingCurveGenotyping Mode.
(§19) Settings: Acquisition mode: continuous; Ramp rate: 0.1 C.°/sec; Acquisition: 6/C.° Melt Curve Genotyping for All Samples
(§20) Melting curves analysis show melting temperature (Tm) of ˜51° C. Range of RNA concentrations was tested and assay window was determined (conc. range of 0.5-1 μM yields best results). The choice of buffer also affected the Tm. RNA constructs were tested under different buffer conditions (especially in presence of salt) in the thermal shift assay. […] CacoK with 30 mM salt at 1 μM RNA conc. was used to assess compound effects on 3WJ stability. […] These conditions were used for screening test compounds.

[2] = tested on: 3WJ_0.0.0_5IB_3FAM construct; assay: Fluorescence quenching binding assay; conditions: at conc. >5 μM, FIG. 107
Experimental: This assay will be used to test binding of compounds for RNA three way junction (such as a 38 nt construct). This is a fluorescence quenching assay utilizing FAM as fluorescence tag and Iowa Black as quencher. Tags are attached at the 3′ and 5′ end, respectively. Stable formation of MW upon compound binding would lead to quenching of the FAM fluorescence due to close proximity of the Iowa Black tag. Assay readout: FAM (485-520 nm) Fluorescence Intensity.
as §2, §3
Sample plate: Greiner cat #784076, black, 384 (Dilution plate: Greiner REF 781101, PS-Microplate, 384 well, clear). Fluorescence Intensity device: Envision 1040285
Daily fresh (10 ml): 1 ml 100 mM CacoK pH 7.2 and 0.3 ml 1 M NaCl filled up to 10 ml with Dnase/Rnase Free distilled water
as §6
Heat up the diluted RNA up to 90° C. for 5 min (sealed Eppendorf Tube). […]
Calibration of the expected fluorescence signal at various RNA concentrations in either CacoK or NaPO4 buffers was performed first. Experiments in buffers containing salt show distinct fluorescence quenching behavior. […]

[3] = tested on: RNA3WJ_0.0.0_5IB_3FAM (3WJ_0.0.0_5IB_3FAM) RNA three way junction; assay: Thermal shift binding assay; conditions: RNA:ligand ratios 1:1, 1:3, raw and normalized data
RNA3WJ_3.0.0_5IB_3FAM = assay: Thermal shift binding assay; conditions: RNA:ligand ratios 1:1, 1:3
Description: as §1, §2, §3, §4, §5, §6, §7, §8, §9, §10, §11
Add 0.8 μL Compound-Solution ([…]). […]
as §14, §15, §16, §17, §18, §19, §20

[4] = tested on: RNA3WJ_1.0.0_5IB_3FAM (cis 3WJ with one unpaired nucleotide); assay: Thermal shift binding assay; conditions: RNA3WJ_1.0.0_5IB 3FAM; RNA:ligand ratios 1:1, 1:3
Description: as §1, §2, §3, §4, §5, §6, §7, §8, §9, §10, §11, §12, §13, §14, §15, §16, §17, §18, §19, §20
Compounds Ark0000013 and Ark0000014 were also tested in the thermal shift assay against three RNA 3WJ constructs, A) RNA3WJ_1.0.0_5IB_3FAM (cis 3WJ with one unpaired nucleotide); B) Split3WJ.1_up_5IB+Split3WJ.1_down_3FAM (trans 3WJ as 1:1 mix); and C) Split3WJ.2_up_5IB+Split3WJ.2_down_3FAM (trans 3WJ as 1:1 mix).

[5] = RNA3WJ_0.0.0_5IB_3FAM, 1 μM RNA, 8 μM compound, 1% DMSO, 10 mM CacoK pH 7.2, 30 mM NaCl

Compound | Temp. Shift [° C.] [1, 5] | Melt. Temp. with cmpd [1] [°C] | Shift melt. Temp. [1] | further results
4-((2S,4S)-4-azido-2-(methyl(12-methyl-13-oxo-15-(2,7,15-tris(8-aminooctanamido)-9,10-[1,2]benzenoanthracen-9(10H)-yl)-3,6,9-trioxa-12-azapentadecyl)carbamoyl)pyrrolidine-1-carbonyl)benzenesulfonyl fluoride [ARK000032] | +15.0 °C | 75.1 | +15.0 °C | –
CC(C)(C)OC(=O)NCCCC[C@@H](NC(=O)OC(C)(C)C)C(=O)Nc1ccc2c(c1)C1(CCC(=O)NCCOCCOCCN)c3cc(NC(=O)[C@@H](CCCCNC(=O)OC(C)(C)C)NC(=O)OC(C)(C)C)ccc3C2c2ccc(NC(=O)[C@@H](CCCCNC(=O)OC(C)(C)C)NC(=O)OC(C)(C)C)cc21 [ARK000023] | – | 60.7 | +0.6 °C | –
CN(CCOCCOCCN(C)C(=O)[C@@H]1C[C@H](N=[N+]=[N-])CN1C(=O)CCc1ccc(S(=O)(=O)F)cc1)C(=O)CCC12c3cc(NC(=O)CCCCCCCN)ccc3C(c3ccc(NC(=O)CCCCCCCN)cc31)c1ccc(NC(=O)CCCCCCCN)cc12 [ARK000028] | – | 82.3 | +22.0 °C | –
[N-]=[N+]=NC[C@H]1O[C@H](O[C@@H]2[C@@H](O)[C@H](O[C@H]3O[C@H](CN)[C@@H](O)[C@H](O)[C@H]3O)[C@@H](N)C[C@H]2N)[C@H](O)[C@@H](N)[C@@H]1O [Ark000007, 6″-Azido-kanamycin A hydrochloride salt] | ~5 °C | – | – | Concentration dependent influence on the fluorescence signal (quenching effect) [2]: increase of quenching effect; Melting temp [° C.] + cmpd [1, 5]: 65.6 °C
C#CCCCC(=O)NC[C@H]1O[C@H](O[C@H]2[C@H](O)[C@@H](O[C@H]3O[C@H](CO)[C@@H](O)[C@H](N)[C@H]3O)[C@H](N)C[C@@H]2N)[C@H](O)[C@@H](O)[C@@H]1O [Ark000008] | – | – | – | Effect on melting temperature (in words) ([1]; 3WJ_0.0.0_5IB_3FAM RNA construct, FIG. 110): very small effect
CN(CCCN)CCCNC(=O)c1ccccc1 [Ark000039] | – | – | – | Effect in the melting curves (in words) [3]: no significant effect; Effect in the melting curves (in words) (RNA3WJ_3.0.0_5IB_3FAM): lack of effect; Effect in the melting curves (in words) [4]: lack of effect
N,N′,N″-(9-(1-((2S,4S)-4-azido-1-(3-(4-(fluorosulfonyl)benzoyl)pyrrolidin-2-yl)-2,11-dimethyl-1,12-dioxo-5,8-dioxa-2,11-diazatetradecan-14-yl)-9,10-dihydro-9,10-[1,2]benzenoanthracene-2,7,15-triyl)tris(azanediyl))tris(8-aminooctanamide) [ARK000031] | +24.1 °C | 84.1 | +24.1 °C | –
